Reference: patent US20260209253A1, “SILVER ION COMPLEX GEMINI QUATERNARY AMMONIUM SALT: PREPARATION METHOD AND APPLICATIONS” (ANHUI KIWI BIOTECH CO., LTD, priority 2023, published 2026)

Test system: Escherichia coli
Test: suspension quantitative bactericidal test (2.1.1.7.4, Disinfection Technical Specifications 2002 edition), 30 min
Type: cell-based
Conditions: for antibacterial performance (in words): Table 3, 0.0015625% and 0.00078125% aqueous solutions
Procedure: (§1) Referring to 2.1.1.7.4 suspension quantitative bactericidal test (2002 edition of Disinfection Technical Specifications), neutralizer was prepared: 2.1% lecithin+2.0% glucose+0.5% sodium thiosulfate+1.5% tween-80+0.5% peptone+1.2% sodium sulfite aqueous solution. C6-S—Cl (Example 1), C8-S—Cl (Example 3) and C10-S—Cl (Example 5) were diluted into 0.0015625% and 0.00078125% aqueous solutions, and the bactericidal experiment was carried out for 30 min to Escherichia coli.
as §1, with “solution.” for “solution. C6-S—Cl (Example 1),”, “3), C8-S—Br (Example 4)” for “3)”, “C8-S—NO3” for “C10-S—Cl”, “7)” for “5)”
Referring to 2.1.1.7.4 suspension quantitative bactericidal test (2002 edition of Disinfection Technical Specifications), neutralizer was prepared: 2.1% lecithin+2.0% glucose+0.5% sodium thiosulfate+1.5% tween-80+0.5% peptone+1.2% sodium sulfite aqueous solution. C8-S—Cl (Example 3), C8-S—NO3—Ag^+ (Example 3), C8-S—CI—Cu^2+ (ratio 1), C8-S—CI—Mn^2+ (ratio 2), C8-S—CI—Fe^3+ (ratio 3), AgNO3, CuCl2, MnCl2, and FeCl3 were dissolved to 0.0015625% and 0.00078125% aqueous solution.
Referring to 2.1.1.7.4 suspension quantitative bactericidal test (2002 edition of Disinfection Technical Specifications), neutralizer was prepared: 2.1% lecithin+2.0% glucose+0.5% sodium thiosulfate+1.5% tween-80+0.5% peptone+1.2% sodium sulfite aqueous solution. C8-S—Cl (Example 3), C8-S—NO3 (Example 7) and C8-S—NO3—Ag^+ (Example 3) were configured into 0.0015625%, 0.00078125% and 0.000390625% aqueous solutions.
Referring to 2.1.1.7.4 suspension quantitative bactericidal test (2002 edition of Disinfection Technical Specifications), neutralizer was prepared: 2.1% lecithin+2.0% glucose+0.5% sodium thiosulfate+1.5% tween-80+0.5% peptone+1.2% sodium sulfite aqueous solution. The bactericidal experiment was carried out on E. coli for 30 min by preparing the silver-ion complex Gemini quaternary ammonium salt (Example 3), C10 chlorinated sulfur-free Gemini quaternary ammonium salt (Comparative example 4) and uncomplex silver-ion Gemini quaternary ammonium salt (Comparative example 4) into 0.0015625%, 0.00078125% and 0.000390625% aqueous solutions.

[1] = Table 3, 0.00078125% aqueous solution, Escherichia coli
[2] = Table 3, 0.0015625% aqueous solution, Escherichia coli
[3] = Table 1, 0.00078125% aqueous solution, Escherichia coli
[4] = Table 1, 0.0015625% aqueous solution, Escherichia coli
[5] = Table 2, 0.00078125% aqueous solution, Escherichia coli
[6] = Table 2, 0.0015625% aqueous solution, Escherichia coli
[7] = Table 5, 0.000390625% aqueous solution, E. coli
[8] = Table 5, 0.00078125% aqueous solution, E. coli
[9] = Table 5, 0.0015625% aqueous solution, E. coli
[10] = Table 4, 0.000390625% aqueous solution, Escherichia coli
[11] = Table 4, 0.00078125% aqueous solution, Escherichia coli
[12] = Table 4, 0.0015625% aqueous solution, Escherichia coli

| Compound | Treated (cfu/mL) [1] | sterilizing rate [1] | antibacterial performance (in words) (Escherichia coli) | Treated (cfu/mL) [2] | sterilizing rate [2] | Treated (cfu/mL) [3] | sterilizing rate [3] | Treated (cfu/mL) [4] | sterilizing rate [4] | Treated (cfu/mL) [5] | sterilizing rate [5] | Treated (cfu/mL) [6] | sterilizing rate [6] | also measured |
| --- | --- | --- | --- | --- | --- | --- | --- | --- | --- | --- | --- | --- | --- | --- |
| [Cl][Cu][Cl] [CuCl2, reference compound] | 4.9 × 10^8 cfu/mL | No bactericidal effect | did not show any antibacterial performance | 3.2 × 10^7 cfu/mL | No bactericidal effect |  |  |  |  |  |  |  |  |  |
| CCCCCCCCSCCC(=O)OCC[N+](C)(C)CCC[N+](C)(C)CCOC(=O)CCSCCCCCCCC [Example C8-S-Cl] | 1.8 × 10^3 cfu/mL | >99.99% |  | 86 cfu/mL | >99.999% | 1.9 × 10^2 cfu/mL | >99.99% | 90 cfu/mL | >99.999% | 1.7 × 10^3 cfu/mL | >99.99% | 79 cfu/mL | >99.999% | bactericidal rate (Table 1, 0.0015625% and 0.00078125% aqueous solutions, Escherichia coli): above 99.99%; Treated (cfu/mL) [7]: 2.6 × 10^5 cfu/mL; sterilizing rate [7]: 99.985%; Treated (cfu/mL) [8]: 1.8 × 10^3 cfu/mL; sterilizing rate [8]: >99.99%; Treated (cfu/mL) [9]: 82 cfu/mL; sterilizing rate [9]: >99.999% |
| [Cl][Mn][Cl] [MnCl2, reference compound] | 8.9 × 10^7 cfu/mL | No bactericidal effect | did not show any antibacterial performance | 2.3 × 10^7 cfu/mL | No bactericidal effect |  |  |  |  |  |  |  |  |  |
| O=[N+]([O-])[O-].[Ag+] [AgNO3, reference compound] | 1.3 × 10^8 cfu/mL | No bactericidal effect | did not show any antibacterial performance | 2.2 × 10^7 cfu/mL | No bactericidal effect |  |  |  |  |  |  |  |  |  |
| CCCCCCCCCCSCCC(=O)OCC[N+](C)(C)CCC[N+](C)(C)CCOC(=O)CCSCCCCCCCCCC [Example C10-S-Cl] |  |  |  |  |  | 4.6 × 10^4 cfu/mL | 99.841% | 5.8 × 10^2 cfu/mL | >99.99% |  |  |  |  |  |
| CCCCCCSCCC(=O)OCC[N+](C)(C)CCC[N+](C)(C)CCOC(=O)CCSCCCCCC [Example C6-S-Cl] |  |  |  |  |  | 4.0 × 10^5 cfu/mL | 98.621% | 3.2 × 10^3 cfu/mL | 99.989% |  |  |  |  |  |
| CCCCCCCCSCCC(=O)OCC[N+](C)(C)CCC[N+](C)(C)CCOC(=O)CCSCCCCCCCC [Example C8-S-Br] |  |  |  |  |  |  |  |  |  | 1.1 × 10^3 cfu/mL | >99.99% | 75 cfu/mL | >99.999% |  |
| CCCCCCCCCC(=O)OCC[N+](C)(C)CCC[N+](C)(C)CCOC(=O)CCCCCCCCC [Example C10-Cl, reference compound] |  |  |  |  |  |  |  |  |  |  |  |  |  | Treated (cfu/mL) [7]: 4.3 × 10^5 cfu/mL; sterilizing rate [7]: 99.978%; Treated (cfu/mL) [8]: 3.5 × 10^3 cfu/mL; sterilizing rate [8]: >99.99%; Treated (cfu/mL) [9]: 1.2 × 10^2 cfu/mL; sterilizing rate [9]: >99.999% |
| CCCCCCCCSCCC(=O)OCC[N+](C)(C)CCC[N+](C)(C)CCOC(=O)CCSCCCCCCCC [Example C8-S-NO3] |  |  |  |  |  |  |  |  |  | 1.4 × 10^2 cfu/mL | >99.999% | 13 cfu/mL | >99.999% | bactericidal rate (Table 2, 0.0015625% and 0.00078125% aqueous solutions, Escherichia coli): above 99.999%; Treated (cfu/mL) [10]: 4.5 × 10^4 cfu/mL; sterilizing rate [10]: >99.99%; Treated (cfu/mL) [11]: 2.5 × 10^2 cfu/mL; sterilizing rate [11]: >99.99%; Treated (cfu/mL) [12]: 13 cfu/mL; sterilizing rate [12]: >99.999% |
| [Cl][Fe]([Cl])[Cl] [FeCl3, reference compound] | 6.2 × 10^8 cfu/mL | No bactericidal effect | did not show any antibacterial performance | 4.3 × 10^7 cfu/mL | No bactericidal effect |  |  |  |  |  |  |  |  |  |
